Results published in ChEMBL document CHEMBL3232845 (Bioorg Med Chem Lett, 2014).

Columns and labels:
[1] = Apparent permeability of the compound from apical to basolateral direction in pig LLC-PK1 cells; format: ADME, cell-based, Sus scrofa
[2] = target: T1, Serine/threonine-protein kinase B-raf (Homo sapiens, UniProt P15056, V600E); assay: Inhibition of B-Raf V600E mutant in human Malme-3M cells assessed as basal ERK phosphorylation; format: cell-based
[3] = target: T1, Serine/threonine-protein kinase B-raf; assay: Inhibition of full-length B-Raf V600E mutant (unknown origin)
[4] = AUC in mouse at 30 mg/kg, po; format: ADME, organism-based; design: dose 30 mg/kg, route oral; conditions: plasma
[5] = Oral bioavailability in mouse at 30 mg/kg; format: ADME, organism-based; conditions: in vivo
[6] = Clearance in mouse at 2.5 mg/kg, iv; format: ADME, organism-based; design: dose 2.5 mg/kg, route intravenous; conditions: in vivo
[7] = Volume of distribution in mouse; format: ADME, organism-based; conditions: in vivo

T1 sequence (P15056 2-766 V600E limits assumed): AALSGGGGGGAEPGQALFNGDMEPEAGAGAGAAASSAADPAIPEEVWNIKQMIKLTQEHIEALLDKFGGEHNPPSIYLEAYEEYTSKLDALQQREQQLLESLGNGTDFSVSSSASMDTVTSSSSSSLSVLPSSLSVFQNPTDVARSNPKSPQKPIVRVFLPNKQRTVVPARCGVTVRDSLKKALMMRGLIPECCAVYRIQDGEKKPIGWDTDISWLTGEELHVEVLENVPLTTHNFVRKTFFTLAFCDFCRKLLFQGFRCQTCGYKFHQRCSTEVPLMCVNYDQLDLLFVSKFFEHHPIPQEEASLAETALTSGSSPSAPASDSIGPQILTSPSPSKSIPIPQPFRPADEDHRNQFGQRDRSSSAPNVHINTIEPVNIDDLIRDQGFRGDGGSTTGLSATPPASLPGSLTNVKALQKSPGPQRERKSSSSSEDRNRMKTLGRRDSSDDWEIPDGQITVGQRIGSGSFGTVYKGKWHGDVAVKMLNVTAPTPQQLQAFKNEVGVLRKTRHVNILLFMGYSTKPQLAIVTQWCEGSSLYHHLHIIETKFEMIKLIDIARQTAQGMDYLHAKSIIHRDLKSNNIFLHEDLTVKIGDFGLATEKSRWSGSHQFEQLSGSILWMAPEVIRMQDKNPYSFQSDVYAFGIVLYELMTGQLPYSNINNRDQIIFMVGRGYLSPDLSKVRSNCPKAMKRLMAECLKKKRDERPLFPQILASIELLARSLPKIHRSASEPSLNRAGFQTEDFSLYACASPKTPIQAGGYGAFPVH

Row | IC50 [2] | IC50 [3] | Compound | also measured
1 | 26 nM | 2 nM | CCCS(=O)(=O)Nc1ccc(F)c(Nc2ccc3ncn(C)c(=O)c3c2)c1Cl | Papp A→B [1]: > 8 ×10⁻⁶ cm/s; AUC [4]: 282 µM·h; bioavailability [5]: 112%; clearance [6]: 4.7 mL/min/kg; Vd [7]: 0.49 L/kg
2 | 18 nM | 2 nM | CCCS(=O)(=O)Nc1ccc(F)c(Nc2ccc3ncn(-c4cnn(C)c4)c(=O)c3c2)c1Cl | –
3 | 733 nM | 16 nM | CCCS(=O)(=O)Nc1ccc(F)c(Nc2ccc3ncnc(OC)c3c2)c1Cl | –
4 | 118 nM | 33 nM | CCCS(=O)(=O)Nc1ccc(F)c(Nc2ccc3ncncc3c2)c1F | –
5 | 132 nM | 11 nM | CCCS(=O)(=O)Nc1ccc(F)c(Nc2ccc3ncnc(NC)c3c2)c1Cl | –
6 | 7 nM | 0.3 nM | CCCS(=O)(=O)Nc1cccc(Oc2ccc3ncn(C)c(=O)c3c2)c1C#N | –
7 | 581 nM | 17 nM | CCCS(=O)(=O)Nc1ccc(F)c(Nc2ccc3ncn(Cc4ccccc4)c(=O)c3c2)c1Cl | –
8 | 3 nM | 0.2 nM | CCCS(=O)(=O)Nc1ccc(F)c(Oc2ccc3ncn(C)c(=O)c3c2)c1C#N | –
9 | 84 nM | 3 nM | CCCS(=O)(=O)Nc1ccc(Cl)c(N(C)c2ccc3ncn(C)c(=O)c3c2)c1F | –
10 | 16 nM | 0.2 nM | CCCS(=O)(=O)Nc1ccc(Cl)c(Nc2ccc3ncn(C)c(=O)c3c2)c1C#N | –
11 | 878 nM | 100 nM | CCCS(=O)(=O)Nc1ccc(F)c(Nc2ccc3ncnc(N(C)C)c3c2)c1Cl | –
12 | 603 nM | 30 nM | CCCS(=O)(=O)Nc1ccc(F)c(N(CC)c2ccc3ncn(C)c(=O)c3c2)c1Cl | –
13 | 55 nM | 19 nM | CCCS(=O)(=O)Nc1ccc(F)c(Nc2ccc3ncn(C)c(=O)c3c2)c1F | –
14 | 114 nM | 8 nM | CCCS(=O)(=O)Nc1ccc(F)c(N(C)c2ccc3ncn(C)c(=O)c3c2)c1Cl | –
15 | – | 851 nM | CCCS(=O)(=O)Nc1ccc(C)c(Nc2ccc3ncn(C)c(=O)c3c2)c1 | –
16 | 110 nM | 26 nM | CCCS(=O)(=O)Nc1ccc(F)c(N(CC)c2ccc3ncn(C)c(=O)c3c2)c1F | –
17 | 814 nM | 25 nM | CCCS(=O)(=O)Nc1ccc(F)c(Nc2ccc3nccnc3c2)c1Cl | –
18 | 62 nM | 11 nM | CCCS(=O)(=O)Nc1ccc(F)c(N(C)c2ccc3ncn(C)c(=O)c3c2)c1F | –
19 | 44 nM | 4 nM | CCCS(=O)(=O)Nc1ccc(F)c(Nc2ccc3ncncc3c2)c1Cl | –
20 | 6250 nM | 314 nM | CCCS(=O)(=O)Nc1ccc(F)c(Nc2ccc3ncccc3c2)c1F | –
21 | 15 nM | 0.2 nM | CCCS(=O)(=O)Nc1ccc(Cl)c(Oc2ccc3ncn(C)c(=O)c3c2)c1C#N | –
22 | 116 nM | 12 nM | CCCS(=O)(=O)Nc1ccc(Cl)c(Nc2ccc3ncn(C)c(=O)c3c2)c1F | –
